The target of one assay is HLA-A*02:01 (Homo sapiens, UniProt P04439, D140Y/D185E/D98H/E176V/E277Q/G131W/G231S/I119V/I121R/I166T/I218V/L300P/L318F/N151K/N90K/P208A/P217A/Q86G/Q94H/R138H/R169H/T345S). Kind of assay: MHC binding assay (UV-ligand exchange, beta2m ELISA). The following applies: binding to HLA-A*02:01 ranged by peptide exchange yield (UV-ligand exchange, β2m ELISA). The gist of the method:
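Stabilised complexes were quantified via their β2m light chain: 100-fold-diluted monomers bound to streptavidin plates, then HRP anti-β2m at 2 ug/ml for 1 h at 37° C., TMB read at 450 nm. The value is the yield of UV-induced exchange of a photocleavable peptide for the candidate.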

The next assay concerns CD8+ T cells. Kind of assay: In vitro immunogenicity for MHC class I presented peptides (priming of CD8+ T cells with aAPCs, pMHC multimer staining). The note with it: for Wells positive [%]: HLA-A*02 restricted peptides, positive wells among evaluable. The class given is cell-based, human. The source says: In order to obtain information regarding the immunogenicity of the TUMAPs of the present invention, the inventors performed investigations using an in vitro T-cell priming assay based on repeated stimulations of CD8+ T cells with artificial antigen presenting cells (aAPCs) loaded with peptide/MHC complexes and anti-CD28 antibody.
In order to perform in vitro stimulations by artificial antigen presenting cells loaded with peptide-MHC complex (pMHC) and anti-CD28 antibody, the inventors first isolated CD8+ T cells from fresh HLA-A*02 leukapheresis products via positive selection using CD8 microbeads (Miltenyi Biotec, Bergisch-Gladbach, Germany) of healthy donors obtained from the University clinics Mannheim, Germany, after informed consent.
PBMCs and isolated CD8+ lymphocytes were incubated in T-cell medium (TCM) until use consisting of RPMI-Glutamax (Invitrogen, Karlsruhe, Germany) supplemented with 10% heat inactivated human AB serum (PAN-Biotech, Aidenbach, Germany), 100 U/ml Penicillin/100 μg/ml Streptomycin (Cambrex, Cologne, Germany), 1 mM sodium pyruvate (CC Pro, Oberdorla, Germany), 20 μg/ml Gentamycin (Cambrex). 2.5 ng/ml IL-7 (PromoCell, Heidelberg, Germany) and 10 U/ml IL-2 (Novartis Pharma, Nürnberg, Germany) were also added to the TCM at this step.
Generation of pMHC/anti-CD28 coated beads, T-cell stimulations and readout was performed in a highly defined in vitro system using four different pMHC molecules per stimulation condition and 8 different pMHC molecules per readout condition.
The purified co-stimulatory mouse IgG2a anti human CD28 Ab 9.3 (Jung et al., 1987) was chemically biotinylated using Sulfo-N-hydroxysuccinimidobiotin as recommended by the manufacturer (Perbio, Bonn, Germany). Beads used were 5.6 μm diameter streptavidin coated polystyrene particles (Bangs Laboratories, Illinois, USA).
pMHC used for positive and negative control stimulations were A*0201/MLA-001 (peptide […] (SEQ ID NO. 664) from modified Melan-A/MART-1) and A*0201/DDX5-001 ([…] from DDX5, SEQ ID NO. 665), respectively.
800,000 beads/200 μl were coated in 96-well plates in the presence of 4×12.5 ng different biotin-pMHC, washed and 600 ng biotin anti-CD28 were added subsequently in a volume of 200 μl. Stimulations were initiated in 96-well plates by co-incubating […] CD8+ T cells with 2×10^5 washed coated beads in 200 μl TCM supplemented with 5 ng/ml IL-12 (PromoCell) for 3 days at 37° C. Half of the medium was then exchanged by fresh TCM supplemented with 80 U/ml IL-2 and incubating was continued for 4 days at 37° C. This stimulation cycle was performed for a total of three times. For the pMHC multimer readout using 8 different pMHC molecules per condition, a two-dimensional combinatorial coding approach was used as previously described (Andersen et al., 2012) with minor modifications encompassing coupling to 5 different fluorochromes. Finally, multimeric analyses were performed by staining the cells with Live/dead near IR dye (Invitrogen, Karlsruhe, Germany), CD8-FITC antibody clone SK1 (BD, Heidelberg, Germany) and fluorescent pMHC multimers. For analysis, a BD LSRII SORP cytometer equipped with appropriate lasers and filters was used. Peptide specific cells were calculated as percentage of total CD8+ cells. Evaluation of multimeric analysis was done using the FlowJo software (Tree Star, Oreg., USA). In vitro priming of specific multimer+ CD8+ lymphocytes was detected by comparing to negative control stimulations.
Exemplary flow cytometry results after TUMAP-specific multimer staining for two peptides of the invention are shown in FIG. 3 together with corresponding negative controls.

Regarding “113 (GLLPTPLFGV; listed as Homo sapiens) [compound 113]”, in the assay with HLA-A*02:01, the Peptide exchange entry is ““+++” (≥50 = +++)”. The “Wells positive [%]” value with CD8+ T cells is given as ““+” (<20% = +)”.

In the case of “166 (YLNHLEPPV; listed as Homo sapiens) [compound 166]”, in the assay with HLA-A*02:01, the Peptide exchange entry is ““+++” (≥50 = +++)”. In addition, the “Wells positive [%]” value with CD8+ T cells is ““++++” (>=70% = ++++)”.

For “319 (SLEPQIQPV; listed as Homo sapiens) [compound 319]”, the Peptide exchange entry with HLA-A*02:01 is reported as ““++” (≥20% = ++)”. Also, in the assay with CD8+ T cells, the “Wells positive [%]” value is listed as ““+” (<20% = +)”.

Regarding “150 (RLWEEGEELEL; listed as Homo sapiens) [compound 150]”, the Peptide exchange result in the assay with HLA-A*02:01 is given as ““+++” (≥50 = +++)”. Further, in the assay on CD8+ T cells, the “Wells positive [%]” value is given as ““+” (<20% = +)”.

Consider “460 (AMLEKNYKL; listed as Homo sapiens) [compound 460]”, for which, in the assay with HLA-A*02:01, the Peptide exchange result is ““++++” (≥75% = ++++)”. Also, in the assay on CD8+ T cells, the “Wells positive [%]” value is listed as ““+” (<20% = +)”.

For the substance “141 (YLDFSNNRL; listed as Homo sapiens) [compound 141]”, the Peptide exchange result with HLA-A*02:01 is reported as ““++” (≥20% = ++)”. Moreover, in the assay on CD8+ T cells, the “Wells positive [%]” value is recorded as ““+” (<20% = +)”.

Regarding “8 (FTLGNVVGMYL; listed as Homo sapiens) [compound 8]”, in the assay with HLA-A*02:01, the Peptide exchange result is recorded as ““++++” (≥75% = ++++)”. For the same substance, in the assay with CD8+ T cells, the “Wells positive [%]” value is listed as ““+” (<20% = +)”.

As to “511 (FLDPYCSASV; listed as Homo sapiens) [compound 511]”, in the assay with HLA-A*02:01, the Peptide exchange entry is ““++” (≥20% = ++)”. The “Wells positive [%]” value in the assay on CD8+ T cells was ““+” (<20% = +)”.

“56 (KLYEGIPVLL; listed as Homo sapiens) [compound 56]”: the Peptide exchange entry with HLA-A*02:01 is recorded as ““++++” (≥75% = ++++)”. The “Wells positive [%]” value in the assay on CD8+ T cells was ““+” (<20% = +)”.

For the substance “652 (TLWYRAPEV; listed as Homo sapiens) [compound 652]”, in the assay with CD8+ T cells (percentage of positive donors), the “in vitro immunogenicity: donors” value is given as “++++ (>=70% = ++++)”.

Regarding “11 (KIFEMLEGV; listed as Homo sapiens) [compound 11]”, the Peptide exchange entry with HLA-A*02:01 is given as ““+++” (≥50 = +++)”. Further, in the assay on CD8+ T cells, the “Wells positive [%]” value is ““+” (<20% = +)”.

As to “60 (SLTIDGIYYV; listed as Homo sapiens) [compound 60]”, the Peptide exchange entry in the assay with HLA-A*02:01 is recorded as ““++++” (≥75% = ++++)”. Besides, in the assay with CD8+ T cells, the “Wells positive [%]” value was ““++++” (>=70% = ++++)”.

Turning to “79 (SLFIGEKAVLL; listed as Homo sapiens) [compound 79]”, the Peptide exchange entry in the assay with HLA-A*02:01 is given as ““+++” (≥50 = +++)”. Further, the “Wells positive [%]” value in the assay with CD8+ T cells is ““+” (<20% = +)”.

For the substance “118 (KLIDNNINV; listed as Homo sapiens) [compound 118]”, the Peptide exchange result with HLA-A*02:01 is on record as ““+++” (≥50 = +++)”. In the assay with CD8+ T cells, the “Wells positive [%]” value is reported as ““+” (<20% = +)”.

Turning to “384 (ILFANPNIFV; listed as Homo sapiens) [compound 384]”, the Peptide exchange result with HLA-A*02:01 is ““+++” (≥50 = +++)”. For the same substance, the “Wells positive [%]” value in the assay with CD8+ T cells is reported as ““+” (<20% = +)”.

With “48 (ALAELYEDEV; listed as Homo sapiens) [compound 48]”, the Peptide exchange result with HLA-A*02:01 is given as ““+++” (≥50 = +++)”. Also, the “Wells positive [%]” value in the assay with CD8+ T cells is ““+” (<20% = +)”.

As for “247 (VLLPNDLLEKV; listed as Homo sapiens) [compound 247]”, the Peptide exchange result with HLA-A*02:01 was ““+++” (≥50 = +++)”. Further, the “Wells positive [%]” value in the assay on CD8+ T cells was ““+” (<20% = +)”.

Consider “3 (SLASKLTTL; listed as Homo sapiens) [compound 3]”, for which the Peptide exchange result with HLA-A*02:01 was ““++++” (≥75% = ++++)”. In the assay with CD8+ T cells, the “Wells positive [%]” value is reported as ““+” (<20% = +)”.

Regarding “443 (GLWEIENNPTV; listed as Homo sapiens) [compound 443]”, in the assay with HLA-A*02:01, the Peptide exchange entry was ““+++” (≥50 = +++)”. For the same substance, the “Wells positive [%]” value with CD8+ T cells is listed as ““+” (<20% = +)”.

Regarding “603 (FLIEPEHVNTV; listed as Homo sapiens) [compound 603]”, in the assay with HLA-A*02:01, the Peptide exchange entry is reported as ““++” (≥20% = ++)”. Besides, the “Wells positive [%]” value in the assay with CD8+ T cells was ““+” (<20% = +)”.

On to “36 (YVLEDLEVTV; listed as Homo sapiens) [compound 36]”, for which, in the assay with HLA-A*02:01, the Peptide exchange result was ““++” (≥20% = ++)”. Further, the “Wells positive [%]” value in the assay with CD8+ T cells is recorded as ““+” (<20% = +)”.

As to “143 (LLLDITPEI; listed as Homo sapiens) [compound 143]”, the Peptide exchange entry with HLA-A*02:01 is ““++++” (≥75% = ++++)”. For the same substance, the “Wells positive [%]” value in the assay on CD8+ T cells is ““+” (<20% = +)”.

Consider “489 (KMWEELPEVV; listed as Homo sapiens) [compound 489]”, for which, in the assay with HLA-A*02:01, the Peptide exchange result is on record as ““+++” (≥50 = +++)”. Also, the “Wells positive [%]” value in the assay with CD8+ T cells is reported as ““+” (<20% = +)”.

Turning to “2 (SLLEADPFL; listed as Homo sapiens) [compound 2]”, the Peptide exchange entry in the assay with HLA-A*02:01 is reported as ““+++” (≥50 = +++)”. In the assay on CD8+ T cells, the “Wells positive [%]” value is listed as ““+” (<20% = +)”.

As for “199 (ALQDVPLSSV; listed as Homo sapiens) [compound 199]”, in the assay with HLA-A*02:01, the Peptide exchange result is given as ““+++” (≥50 = +++)”. Besides, the “Wells positive [%]” value in the assay with CD8+ T cells was ““+” (<20% = +)”.

Regarding “499 (KIFDIDEAEEGV; listed as Homo sapiens) [compound 499]”, the Peptide exchange result with HLA-A*02:01 is ““++” (≥20% = ++)”. Also, the “Wells positive [%]” value in the assay on CD8+ T cells was ““+” (<20% = +)”.

Turning to “38 (FLLEDDIHVS; listed as Homo sapiens) [compound 38]”, the Peptide exchange result with HLA-A*02:01 is ““+++” (≥50 = +++)”. In addition, the “Wells positive [%]” value in the assay on CD8+ T cells is ““+” (<20% = +)”.

The record behind these values is patent US10738094B2, “Peptides and combination of peptides for use in immunotherapy against ovarian cancer and other cancers” (immatics biotechnologies GmbH, priority 2015, dated 2020).
